This note sets out measurements from ChEMBL document CHEMBL1125348, “The first mechanism-based inactivators for angiotensin-converting enzyme” (J Med Chem, 1992).

The Ki is a dissociation constant, usually derived from enzyme kinetics or from competition with a known ligand. As usually defined, the Km is the substrate concentration at which the rate is half of its maximum.

Holding throughout (type): protein assay
The target of series [1] is T1, Angiotensin-converting enzyme (Homo sapiens, UniProt P12821+Q9BYF1). Briefly: Inhibition of hydrolysis of N-[3-(2-furyl)acryloyll-Phe-Gly-Gly7 by angiotensin I converting enzyme.
T1 sequence (P12821 whole entry, looked up): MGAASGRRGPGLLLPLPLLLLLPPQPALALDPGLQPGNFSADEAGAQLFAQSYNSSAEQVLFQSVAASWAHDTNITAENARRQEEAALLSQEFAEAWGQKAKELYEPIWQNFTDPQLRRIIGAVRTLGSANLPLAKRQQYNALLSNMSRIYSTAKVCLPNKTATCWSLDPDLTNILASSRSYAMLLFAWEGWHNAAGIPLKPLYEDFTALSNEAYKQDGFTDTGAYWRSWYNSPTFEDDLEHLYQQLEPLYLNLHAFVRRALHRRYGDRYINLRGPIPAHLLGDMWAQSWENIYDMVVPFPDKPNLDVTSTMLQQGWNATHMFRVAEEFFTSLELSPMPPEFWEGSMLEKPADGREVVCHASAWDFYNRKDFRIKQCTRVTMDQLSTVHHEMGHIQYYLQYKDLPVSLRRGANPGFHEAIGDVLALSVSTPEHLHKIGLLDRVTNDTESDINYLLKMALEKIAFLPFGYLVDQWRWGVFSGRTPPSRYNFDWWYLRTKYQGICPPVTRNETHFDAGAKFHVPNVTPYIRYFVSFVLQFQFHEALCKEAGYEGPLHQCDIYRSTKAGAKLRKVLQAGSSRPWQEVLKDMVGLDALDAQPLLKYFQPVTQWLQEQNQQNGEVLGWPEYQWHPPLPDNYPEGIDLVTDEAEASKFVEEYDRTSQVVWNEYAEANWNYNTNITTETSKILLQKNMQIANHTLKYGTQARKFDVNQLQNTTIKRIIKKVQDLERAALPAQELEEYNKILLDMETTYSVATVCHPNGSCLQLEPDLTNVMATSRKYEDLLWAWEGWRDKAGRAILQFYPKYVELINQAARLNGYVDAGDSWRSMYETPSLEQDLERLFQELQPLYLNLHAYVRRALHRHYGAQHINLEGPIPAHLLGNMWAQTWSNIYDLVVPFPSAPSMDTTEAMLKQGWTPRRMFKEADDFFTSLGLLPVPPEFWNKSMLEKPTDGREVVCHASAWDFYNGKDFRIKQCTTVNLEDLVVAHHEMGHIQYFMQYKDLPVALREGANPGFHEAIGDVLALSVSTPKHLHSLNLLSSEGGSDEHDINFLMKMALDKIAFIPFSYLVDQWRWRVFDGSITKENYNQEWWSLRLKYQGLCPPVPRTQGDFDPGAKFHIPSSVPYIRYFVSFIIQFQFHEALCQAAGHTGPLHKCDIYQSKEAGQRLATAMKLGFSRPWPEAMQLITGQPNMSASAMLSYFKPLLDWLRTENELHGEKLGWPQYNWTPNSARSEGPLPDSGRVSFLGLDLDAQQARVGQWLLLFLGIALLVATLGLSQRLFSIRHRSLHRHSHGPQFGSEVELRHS
T1 sequence (Q9BYF1 whole entry, looked up): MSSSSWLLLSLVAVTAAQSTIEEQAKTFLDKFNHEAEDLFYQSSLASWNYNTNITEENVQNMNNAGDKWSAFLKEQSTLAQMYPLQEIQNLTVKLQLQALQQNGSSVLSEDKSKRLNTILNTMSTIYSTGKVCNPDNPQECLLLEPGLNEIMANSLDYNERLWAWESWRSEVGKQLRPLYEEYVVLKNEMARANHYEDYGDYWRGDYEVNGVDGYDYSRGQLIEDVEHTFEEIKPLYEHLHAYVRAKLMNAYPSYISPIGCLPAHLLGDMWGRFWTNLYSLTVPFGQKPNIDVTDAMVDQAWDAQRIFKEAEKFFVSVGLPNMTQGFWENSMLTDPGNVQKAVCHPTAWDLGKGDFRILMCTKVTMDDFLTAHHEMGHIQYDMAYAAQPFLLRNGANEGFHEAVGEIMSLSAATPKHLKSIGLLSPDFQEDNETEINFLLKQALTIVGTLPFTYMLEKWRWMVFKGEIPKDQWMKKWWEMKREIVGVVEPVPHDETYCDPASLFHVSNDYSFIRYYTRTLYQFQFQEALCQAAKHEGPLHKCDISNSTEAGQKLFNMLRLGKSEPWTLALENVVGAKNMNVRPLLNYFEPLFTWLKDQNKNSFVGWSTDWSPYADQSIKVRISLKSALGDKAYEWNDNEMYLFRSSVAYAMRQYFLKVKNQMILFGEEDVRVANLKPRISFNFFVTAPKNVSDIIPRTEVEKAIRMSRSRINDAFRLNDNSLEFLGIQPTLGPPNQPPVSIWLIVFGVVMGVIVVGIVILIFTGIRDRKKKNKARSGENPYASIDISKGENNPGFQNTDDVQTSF
Series [2] deals with T1, Angiotensin-converting enzyme. Briefly: First order rate constant for angiotensin I converting enzyme.
For series [3] the target is unchanged. Briefly: kinact for angiotensin I converting enzyme.
Series [4] deals with N#CCC(=O)N[C@@H](Cc1ccccc1)C(=O)N[C@@H](Cc1ccccc1)C(=O)O. Briefly: Km for angiotensin I converting enzyme.

Angiotensin-converting enzyme (Homo sapiens), sequence (Q9BYF1 whole entry, looked up): as above
Angiotensin-converting enzyme (Homo sapiens), sequence (P12821 whole entry, looked up): as the sequence (P12821 whole entry, looked up) above

For the compound `N#CCC(=O)N[C@@H](Cc1ccccc1)C(=O)N[C@@H](Cc1ccccc1)C(=O)O`, the Ki in series [1] was 65 µM. In series [2], this compound gave a k obs of 0.000835 s⁻¹. This compound displayed a K inact in series [3] of 0.08 min⁻¹.

Compound `CC(C)C[C@H](NC(=O)[C@H](C)NC(=O)CC#N)C(=O)O` came in with a k obs in series [2] of 0.000501 s⁻¹.

Take `C[C@H](NC(=O)CC#N)C(=O)N[C@@H](Cc1ccccc1)C(=O)O`: the k obs in series [2] stood at 0.000251 s⁻¹.

With “Angiotensin-converting enzyme (Homo sapiens) (from UniProt P12821+Q9BYF1)”, the Km in series [4] was found to be 10.5 mM.
